Test results as given in patent publication EP4745137A1 (Gluetacs Therapeutics (Shanghai) Co., Ltd., priority 2023, dated 2025).
pIC50: −log10 of the molar value.

Key:
WEE1 = target: T1, WEE1 (Homo sapiens, UniProt P30291+Q96SW2); assay: Western-blot assay of substrate protein degradation in hPBMCs, WEE1; type: cell-based; conditions: 24 hours of compound treatment
T1 construct: endogenous in cells; host or cells: hPBMCs (Milecell Biotechnologies)

GSPT1 = target: T2, GSPT1 (Homo sapiens, UniProt P15170+Q96SW2); assay: Western-blot assay of substrate protein degradation in hPBMCs, GSPT1; type: cell-based; conditions: 24 hours of compound treatment
T2 construct: endogenous in cells; host or cells: hPBMCs (Milecell Biotechnologies)
T2 sequence (P15170 whole entry): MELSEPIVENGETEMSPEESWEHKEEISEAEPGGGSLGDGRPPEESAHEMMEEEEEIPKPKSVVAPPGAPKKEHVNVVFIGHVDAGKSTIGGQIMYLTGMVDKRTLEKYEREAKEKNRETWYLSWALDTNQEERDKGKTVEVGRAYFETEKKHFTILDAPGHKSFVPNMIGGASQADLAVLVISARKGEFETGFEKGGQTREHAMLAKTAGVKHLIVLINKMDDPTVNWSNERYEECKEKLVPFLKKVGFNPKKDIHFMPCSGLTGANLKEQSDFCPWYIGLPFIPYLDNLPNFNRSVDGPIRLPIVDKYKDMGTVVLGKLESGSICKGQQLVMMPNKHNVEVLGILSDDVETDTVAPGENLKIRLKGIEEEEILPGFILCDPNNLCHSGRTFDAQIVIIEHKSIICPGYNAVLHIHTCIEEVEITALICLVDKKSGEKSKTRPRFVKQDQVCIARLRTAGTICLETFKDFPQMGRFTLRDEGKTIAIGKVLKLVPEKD
T2 sequence (Q96SW2 whole entry): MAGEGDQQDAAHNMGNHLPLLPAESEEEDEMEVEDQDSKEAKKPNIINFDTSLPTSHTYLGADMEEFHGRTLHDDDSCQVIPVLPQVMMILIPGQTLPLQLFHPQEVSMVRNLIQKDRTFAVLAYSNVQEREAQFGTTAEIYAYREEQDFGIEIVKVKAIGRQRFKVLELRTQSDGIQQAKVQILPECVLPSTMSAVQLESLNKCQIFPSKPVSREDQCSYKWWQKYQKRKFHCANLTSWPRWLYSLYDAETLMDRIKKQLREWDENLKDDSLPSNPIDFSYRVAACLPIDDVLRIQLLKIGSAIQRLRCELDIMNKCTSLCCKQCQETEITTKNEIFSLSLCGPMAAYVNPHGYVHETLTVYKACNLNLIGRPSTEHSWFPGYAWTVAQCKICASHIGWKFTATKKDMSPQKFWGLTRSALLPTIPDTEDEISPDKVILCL
T2 sequence (Q16531 whole entry partner): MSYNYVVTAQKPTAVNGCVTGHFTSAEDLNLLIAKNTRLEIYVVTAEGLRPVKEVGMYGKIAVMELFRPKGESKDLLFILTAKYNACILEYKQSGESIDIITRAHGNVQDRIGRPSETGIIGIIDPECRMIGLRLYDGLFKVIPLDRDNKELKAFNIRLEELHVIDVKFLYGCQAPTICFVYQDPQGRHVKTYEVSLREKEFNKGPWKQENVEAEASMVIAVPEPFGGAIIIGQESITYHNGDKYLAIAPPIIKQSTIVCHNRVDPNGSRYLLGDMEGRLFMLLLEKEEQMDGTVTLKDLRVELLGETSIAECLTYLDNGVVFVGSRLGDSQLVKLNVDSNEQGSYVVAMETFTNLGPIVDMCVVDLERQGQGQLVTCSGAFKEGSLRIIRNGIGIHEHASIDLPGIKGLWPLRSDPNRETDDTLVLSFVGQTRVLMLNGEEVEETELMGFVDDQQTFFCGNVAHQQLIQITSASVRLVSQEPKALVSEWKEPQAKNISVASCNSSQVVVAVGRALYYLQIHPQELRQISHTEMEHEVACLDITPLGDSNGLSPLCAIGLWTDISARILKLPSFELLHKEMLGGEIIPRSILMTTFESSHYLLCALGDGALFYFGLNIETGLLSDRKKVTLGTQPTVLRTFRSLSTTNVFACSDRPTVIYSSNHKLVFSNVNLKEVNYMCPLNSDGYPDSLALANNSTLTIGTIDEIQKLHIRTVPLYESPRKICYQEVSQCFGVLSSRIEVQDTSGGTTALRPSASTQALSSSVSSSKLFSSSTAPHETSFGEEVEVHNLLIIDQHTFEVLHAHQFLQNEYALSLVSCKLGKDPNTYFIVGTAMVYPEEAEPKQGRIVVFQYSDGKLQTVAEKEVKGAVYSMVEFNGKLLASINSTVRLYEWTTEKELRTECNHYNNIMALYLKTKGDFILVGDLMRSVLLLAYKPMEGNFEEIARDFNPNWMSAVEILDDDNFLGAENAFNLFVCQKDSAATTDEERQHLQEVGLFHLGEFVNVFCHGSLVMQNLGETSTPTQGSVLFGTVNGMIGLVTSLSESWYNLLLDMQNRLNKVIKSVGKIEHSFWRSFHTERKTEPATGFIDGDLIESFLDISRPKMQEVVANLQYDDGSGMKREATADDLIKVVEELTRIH

IKZF1 = target: T3, IKZF1 (Homo sapiens, UniProt Q13422+Q96SW2); assay: Western-blot assay of substrate protein degradation in hPBMCs, IKZF1; type: cell-based; conditions: 24 hours of compound treatment
T3 construct: endogenous in cells; host or cells: hPBMCs (Milecell Biotechnologies)
T3 sequence (Q13422 whole entry): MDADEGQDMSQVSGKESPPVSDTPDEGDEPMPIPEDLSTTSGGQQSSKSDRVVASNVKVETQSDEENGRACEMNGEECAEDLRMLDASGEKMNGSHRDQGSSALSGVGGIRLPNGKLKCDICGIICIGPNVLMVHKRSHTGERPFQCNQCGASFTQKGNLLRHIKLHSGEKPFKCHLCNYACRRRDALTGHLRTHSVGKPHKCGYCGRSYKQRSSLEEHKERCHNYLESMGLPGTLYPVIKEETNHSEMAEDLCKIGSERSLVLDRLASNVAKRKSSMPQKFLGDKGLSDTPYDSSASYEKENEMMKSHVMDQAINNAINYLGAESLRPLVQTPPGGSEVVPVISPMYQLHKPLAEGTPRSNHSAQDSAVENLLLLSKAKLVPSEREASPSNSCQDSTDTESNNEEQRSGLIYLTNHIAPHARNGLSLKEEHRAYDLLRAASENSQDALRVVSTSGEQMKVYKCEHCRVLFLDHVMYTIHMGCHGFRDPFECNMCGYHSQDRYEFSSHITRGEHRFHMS
T3 sequence (Q96SW2 whole entry): as the sequence (Q96SW2 whole entry) above
T3 sequence (Q16531 whole entry partner): as the sequence (Q16531 whole entry partner) above

IKZF2 = target: T4, IKZF2 (Homo sapiens, UniProt Q96SW2+Q9UKS7); assay: Western-blot assay of substrate protein degradation in hPBMCs, IKZF2; type: cell-based; conditions: 24 hours of compound treatment
T4 construct: endogenous in cells; host or cells: hPBMCs (Milecell Biotechnologies)
T4 sequence (Q9UKS7 whole entry): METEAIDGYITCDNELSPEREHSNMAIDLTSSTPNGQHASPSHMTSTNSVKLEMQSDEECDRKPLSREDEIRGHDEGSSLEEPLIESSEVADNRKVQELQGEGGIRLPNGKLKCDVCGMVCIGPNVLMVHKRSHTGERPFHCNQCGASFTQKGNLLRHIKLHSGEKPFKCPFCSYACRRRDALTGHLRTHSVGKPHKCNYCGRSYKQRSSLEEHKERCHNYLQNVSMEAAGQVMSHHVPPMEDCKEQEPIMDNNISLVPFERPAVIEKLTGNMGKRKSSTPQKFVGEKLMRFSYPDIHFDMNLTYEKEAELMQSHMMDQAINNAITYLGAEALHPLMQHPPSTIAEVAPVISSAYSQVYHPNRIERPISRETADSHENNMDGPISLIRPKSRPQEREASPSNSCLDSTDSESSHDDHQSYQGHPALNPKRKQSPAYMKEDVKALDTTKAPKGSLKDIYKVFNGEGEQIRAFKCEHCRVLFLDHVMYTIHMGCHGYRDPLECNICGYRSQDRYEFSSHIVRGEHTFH
T4 sequence (Q96SW2 whole entry): as the sequence (Q96SW2 whole entry) above
T4 sequence (Q16531 whole entry partner): as the sequence (Q16531 whole entry partner) above

CK1α = target: T5, CK1α (Homo sapiens, UniProt P48729+Q96SW2); assay: Western-blot assay of substrate protein degradation in hPBMCs, CK1α; type: cell-based; conditions: 24 hours of compound treatment
T5 construct: endogenous in cells; host or cells: hPBMCs (Milecell Biotechnologies)
T5 sequence (P48729 whole entry): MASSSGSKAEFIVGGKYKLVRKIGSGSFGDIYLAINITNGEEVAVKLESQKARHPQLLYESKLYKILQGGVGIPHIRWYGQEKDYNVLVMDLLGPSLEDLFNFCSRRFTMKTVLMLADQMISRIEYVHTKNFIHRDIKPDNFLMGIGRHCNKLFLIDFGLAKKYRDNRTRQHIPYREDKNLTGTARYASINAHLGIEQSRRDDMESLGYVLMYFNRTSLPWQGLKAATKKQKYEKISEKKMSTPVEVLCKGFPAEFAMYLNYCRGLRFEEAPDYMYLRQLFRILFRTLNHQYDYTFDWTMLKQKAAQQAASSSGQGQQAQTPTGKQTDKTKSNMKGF
T5 sequence (Q96SW2 whole entry): as the sequence (Q96SW2 whole entry) above
T5 sequence (Q16531 whole entry partner): as the sequence (Q16531 whole entry partner) above

[1] = target: T6, human Cereblon WT GST-tagged protein (Homo sapiens, UniProt Q96SW2); assay: CRBN-binding affinity by HTRF (CEREBLON BINDING kit); conditions: HTRF inhibitory activity, CEREBLON BINDING kit; read-out: HTRF IC50
T6 construct: purchased CISBIO 64BDCRBNPEH
T6 sequence (Q96SW2 whole entry): as the sequence (Q96SW2 whole entry) above

IKZF3 = target: T7, IKZF3 (Homo sapiens, UniProt Q96SW2+Q9UKT9); assay: Western-blot assay of substrate protein degradation in hPBMCs, IKZF3; type: cell-based; conditions: 24 hours of compound treatment
T7 construct: endogenous in cells; host or cells: hPBMCs (Milecell Biotechnologies)
T7 sequence (Q9UKT9 whole entry): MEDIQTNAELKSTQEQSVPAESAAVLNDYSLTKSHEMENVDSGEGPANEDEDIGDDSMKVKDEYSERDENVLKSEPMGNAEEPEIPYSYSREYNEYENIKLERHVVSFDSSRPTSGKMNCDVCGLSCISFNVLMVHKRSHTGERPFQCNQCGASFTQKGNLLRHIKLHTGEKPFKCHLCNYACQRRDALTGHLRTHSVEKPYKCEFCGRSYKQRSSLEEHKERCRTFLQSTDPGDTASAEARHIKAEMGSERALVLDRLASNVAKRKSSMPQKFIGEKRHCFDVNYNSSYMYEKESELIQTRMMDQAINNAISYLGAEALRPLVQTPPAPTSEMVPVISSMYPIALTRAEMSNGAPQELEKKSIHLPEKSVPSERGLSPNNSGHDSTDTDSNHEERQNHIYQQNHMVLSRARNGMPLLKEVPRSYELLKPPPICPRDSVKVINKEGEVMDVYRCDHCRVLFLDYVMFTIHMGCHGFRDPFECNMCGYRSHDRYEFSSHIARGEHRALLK
T7 sequence (Q96SW2 whole entry): as the sequence (Q96SW2 whole entry) above
T7 sequence (Q16531 whole entry partner): as the sequence (Q16531 whole entry partner) above

[2] = compounds tested at 50 nM and 500 nM (concentration of the table not stated)
[3] = 50 nM and 500 nM tested (concentration behind the class not stated)

| SMILES | Weel substrate protein remaining % (WEE1; [2]) | GSPT1 substrate protein remaining % (GSPT1; [2]) | IKZF 1 substrate protein remaining % (IKZF1; [2]) | IKZF2 substrate protein remaining % (IKZF2; [2]) | CK1a substrate protein remaining % (CK1α; [2]) | pIC50 [1] | IKZF3 substrate protein remaining % (IKZF3; [2]) | Weel substrate protein remaining % (WEE1; [3]) | GSPT1 substrate protein remaining % (GSPT1; [3]) | IKZF 1 substrate protein remaining % (IKZF1; [3]) | IKZF2 substrate protein remaining % (IKZF2; [3]) | CK1a substrate protein remaining % (CK1α; [3]) | IKZF3 substrate protein remaining % (IKZF3; [3]) |
| --- | --- | --- | --- | --- | --- | --- | --- | --- | --- | --- | --- | --- | --- |
| O=C1CCC(N2Cc3cc(CN4CCN(c5ccncc5)CC4)ccc3C2=O)C(=O)N1 (centres unmarked) [GT-04450, 3-(1-oxo-5-((4-(pyridin-4-yl)piperazin-1-yl)methyl)isoindolin-2-yl)piperidine-2,6-dione] | B (80%< substrate protein remaining %≤ 100%) | A (0% ≤ substrate protein remaining % ≤ 80%) | B (80%< substrate protein remaining %≤ 100%) | B (80%< substrate protein remaining %≤ 100%) | B (80%< substrate protein remaining %≤ 100%) | 6.00 to 6.30 | B (80%< substrate protein remaining %≤ 100%) | – | – | – | – | – | – |
| Cc1sc2ncnc(C3CCN(Cc4ccc5c(c4)C(=O)N(C4CCC(=O)NC4=O)C5=O)CC3)c2c1C (centres unmarked) [GT-06593, 5-((4-(5,6-dimethylthieno[2,3-d]pyrimidin-4-yl)piperidin-1-yl)methyl)-2-(2,6-dioxopiperidin-3-yl)isoindoline-1,3-dione] | – | – | – | – | – | 5.72 to 5.82 | – | A (0% ≤ substrate protein remaining % ≤ 80%) | A (0% ≤ substrate protein remaining % ≤ 80%) | A (0% ≤ substrate protein remaining % ≤ 80%) | A (0% ≤ substrate protein remaining % ≤ 80%) | B (80%< substrate protein remaining %≤ 100%) | A (0% ≤ substrate protein remaining % ≤ 80%) |
| O=C1CCC(N2Cc3cc(CN4CCN(c5ccccn5)CC4)ccc3C2=O)C(=O)N1 (centres unmarked) [GT-04449, 3-(1-oxo-5-((4-(pyridin-2-yl)piperazin-1-yl)methyl)isoindolin-2-yl)piperidine-2,6-dione] | A (0% ≤ substrate protein remaining % ≤ 80%) | A (0% ≤ substrate protein remaining % ≤ 80%) | A (0% ≤ substrate protein remaining % ≤ 80%) | A (0% ≤ substrate protein remaining % ≤ 80%) | A (0% ≤ substrate protein remaining % ≤ 80%) | 6.00 to 6.30 | A (0% ≤ substrate protein remaining % ≤ 80%) | – | – | – | – | – | – |
| O=C1CCC(N2Cc3cc(CN4CCN(c5ccc(Cl)nn5)CC4)ccc3C2=O)C(=O)N1 (centres unmarked) [GT-04482, 3-(5-((4-(6-chloropyridazin-3-yl)piperazin-1-yl)methyl)-1-oxoisoindolin-2-yl)piperidine-2,6-dione] | A (0% ≤ substrate protein remaining % ≤ 80%) | A (0% ≤ substrate protein remaining % ≤ 80%) | B (80%< substrate protein remaining %≤ 100%) | A (0% ≤ substrate protein remaining % ≤ 80%) | A (0% ≤ substrate protein remaining % ≤ 80%) | 6.00 to 6.30 | B (80%< substrate protein remaining %≤ 100%) | – | – | – | – | – | – |
| O=C1CCC(N2C(=O)c3ccc(CN4CCC(c5ncnc6sc7c(c56)CCCC7)CC4)cc3C2=O)C(=O)N1 (centres unmarked) [GT-06649, 2-(2,6-dioxopiperidin-3-yl)-5-((4-(5,6,7,8-tetrahydrobenzo[4,5]thieno[2,3-d]pyrimidin-4-yl)piperidin-1-yl)methyl)isoindoline-1,3-dione] | – | – | – | – | – | 5.72 to 5.82 | – | A (0% ≤ substrate protein remaining % ≤ 80%) | A (0% ≤ substrate protein remaining % ≤ 80%) | B (80%< substrate protein remaining %≤ 100%) | A (0% ≤ substrate protein remaining % ≤ 80%) | A (0% ≤ substrate protein remaining % ≤ 80%) | A (0% ≤ substrate protein remaining % ≤ 80%) |
| O=C1CCC(N2C(=O)c3ccc(CN4CCN(c5cccs5)CC4)cc3C2=O)C(=O)N1 (centres unmarked) [GT-06212, 2-(2,6-dioxopiperidin-3-yl)-5-((4-(thiophen-2-yl)piperazin-1-yl)methyl)isoindoline-1,3-dione] | – | – | – | – | – | > 6.30 | – | B (80%< substrate protein remaining %≤ 100%) | A (0% ≤ substrate protein remaining % ≤ 80%) | B (80%< substrate protein remaining %≤ 100%) | A (0% ≤ substrate protein remaining % ≤ 80%) | B (80%< substrate protein remaining %≤ 100%) | B (80%< substrate protein remaining %≤ 100%) |
| Cc1ccc(C2=CCN(Cc3ccc4c(c3)C(=O)N(C3CCC(=O)NC3=O)C4=O)CC2)s1 (centres unmarked) [GT-06220, 2-(2,6-dioxopiperidin-3-yl)-5-((4-(5-methylthiophen-2-yl)-3,6-dihydropyridin-1(2H)-yl)methyl)isoindoline-1,3-dione] | – | – | – | – | – | 5.72 to 5.82 | – | A (0% ≤ substrate protein remaining % ≤ 80%) | A (0% ≤ substrate protein remaining % ≤ 80%) | A (0% ≤ substrate protein remaining % ≤ 80%) | A (0% ≤ substrate protein remaining % ≤ 80%) | A (0% ≤ substrate protein remaining % ≤ 80%) | A (0% ≤ substrate protein remaining % ≤ 80%) |
| O=C1CCC(N2C(=O)c3ccc(CN4CC=C(c5ccco5)CC4)cc3C2=O)C(=O)N1 (centres unmarked) [GT-06222, 2-(2,6-dioxopiperidin-3-yl)-5-((4-(furan-2-yl)-3,6-dihydropyridin-1(2H)-yl)methyl)isoindoline-1,3-dione] | – | – | – | – | – | 5.82 to 6.00 | – | A (0% ≤ substrate protein remaining % ≤ 80%) | A (0% ≤ substrate protein remaining % ≤ 80%) | A (0% ≤ substrate protein remaining % ≤ 80%) | A (0% ≤ substrate protein remaining % ≤ 80%) | A (0% ≤ substrate protein remaining % ≤ 80%) | A (0% ≤ substrate protein remaining % ≤ 80%) |
| O=C1CCC(N2C(=O)c3ccc(CN4CCC(c5ncnc6sc7c(c56)CCC7)CC4)cc3C2=O)C(=O)N1 (centres unmarked) [GT-06650, 5-((4-(6,7-dihydro-5H-cyclopenta[4,5]thieno[2,3-d]pyrimidin-4-yl)piperidin-1-yl)methyl)-2-(2,6-dioxopiperidin-3-yl)isoindoline-1,3-dione] | – | – | – | – | – | 5.72 to 5.82 | – | A (0% ≤ substrate protein remaining % ≤ 80%) | B (80%< substrate protein remaining %≤ 100%) | B (80%< substrate protein remaining %≤ 100%) | B (80%< substrate protein remaining %≤ 100%) | B (80%< substrate protein remaining %≤ 100%) | B (80%< substrate protein remaining %≤ 100%) |
| O=C1CCC(N2Cc3cc(CN4CCN(c5ncnc6scc(-c7ccccc7)c56)CC4)ccc3C2=O)C(=O)N1 (centres unmarked) [GT-04709, 3-(1-oxo-5-((4-(5-phenylthieno[2,3-d]pyrimidin-4-yl)piperazin-1-yl)methyl)isoindolin-2-yl)piperidine-2,6-dione] | B (80%< substrate protein remaining %≤ 100%) | A (0% ≤ substrate protein remaining % ≤ 80%) | B (80%< substrate protein remaining %≤ 100%) | B (80%< substrate protein remaining %≤ 100%) | A (0% ≤ substrate protein remaining % ≤ 80%) | > 6.30 | A (0% ≤ substrate protein remaining % ≤ 80%) | – | – | – | – | – | – |
| O=C1CCC(N2Cc3cc(CN4CCN(c5nc(N6CCC6)nc6c5SCC6)CC4)ccc3C2=O)C(=O)N1 (centres unmarked) [GT-05900, 3-(5-((4-(2-(azetidin-1-yl)-6,7-dihydrothieno[3,2-d]pyrimidin-4-yl)piperazin-1-yl)methyl)-1-oxoisoindolin-2-yl)piperidine-2,6-dione] | – | – | – | – | – | > 6.30 | – | B (80%< substrate protein remaining %≤ 100%) | B (80%< substrate protein remaining %≤ 100%) | B (80%< substrate protein remaining %≤ 100%) | A (0% ≤ substrate protein remaining % ≤ 80%) | B (80%< substrate protein remaining %≤ 100%) | A (0% ≤ substrate protein remaining % ≤ 80%) |
